In US12630528B2, “Amino aryl derivative useful as diacylglycerol acyltransferase 2 inhibitor and use thereof” (LG CHEM, LTD., priority 2019, dated 2026):

target: T1, human DGAT2 (Homo sapiens, UniProt Q96PD7); test: DGAT2 enzyme activity inhibition, Phospholipid FlashPlate SPA; format: biochemical; settings: recombinant human DGAT2 membrane protein from Sf-21 cells; inhibition of [14C]-TG production; 37° C.
T1 construct: FLAG (DYKDDDDK); made in house; host or cells: Sf-21 insect cells (BacPAK baculovirus system); membrane fraction used
T1 sequence (Q96PD7 1-388): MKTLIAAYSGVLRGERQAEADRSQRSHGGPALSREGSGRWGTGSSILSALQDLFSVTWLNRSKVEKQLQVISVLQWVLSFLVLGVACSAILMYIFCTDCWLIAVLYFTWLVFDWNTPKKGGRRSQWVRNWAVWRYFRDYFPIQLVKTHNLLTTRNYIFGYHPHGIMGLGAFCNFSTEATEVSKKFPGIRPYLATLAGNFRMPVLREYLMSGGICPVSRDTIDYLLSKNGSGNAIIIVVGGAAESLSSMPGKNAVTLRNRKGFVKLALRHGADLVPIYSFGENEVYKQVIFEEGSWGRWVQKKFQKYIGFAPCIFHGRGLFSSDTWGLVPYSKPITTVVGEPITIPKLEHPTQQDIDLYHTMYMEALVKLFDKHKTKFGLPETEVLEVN
Procedure: In order to prepare the pBacPAK9-DGAT2, which is DGAT2 expression vector, the human DGAT2 gene amplified by polymerase chain reaction (PCR) was cloned into the EcoR1 and Xho1 sites of the pBacPAK9 (clonctech) vector. The nucleotide sequence of the primers used in PCR was the forward primer 5′ […] (SEQ. ID. NO: 2). The composition of the reaction solution was to contain 50 ng of cDNA clone (OriGene), 200 μM of dATP, dCTP, dTTP, dGTP, 200 nM of each primer, 1 unit of Tag DNA Polymerase (Toyobo), 1×PCR buffer, and the final volume was adjusted to 20 μl. The reaction conditions were denatured at 95° C. for 5 minutes, followed by 30 times of 94° C. for 20 seconds, 60° C. for 20 seconds, and 72° C. for 90 seconds, followed by further reaction at 72° C. for 7 minutes.
Recombinant human DGAT2 protein was expressed in Sf-21 cells, which are insect cells, by using the BacPack baculovirus expression system (Clontech). The brief manufacturing process is as follows. First, the pBacPAK9-DGAT2 expression vector was transfected with BacPAK6 virus DNA (Bsu36I digest) into sf21 cells using Bacfectin to prepare a recombinant DGAT2 expressing baculovirus. The thus prepared baculovirus was infected with Sf-21 cells at 10 MOI (multiplicity of infection), and after 72 hours, infected insect cells were collected and membrane proteins were isolated. For membrane protein separation, the cell pellet was dissolved in a sucrose solution containing 250 mM sucrose, 10 mM Tris (pH 7.4), and 1 mM ethylenediamine-tetraacetic acid (EDTA), and then homogenized by using a dounce homogenizer, and the supernatant was taken by centrifuging at 600×g for 15 minutes, and centrifuged at 100,000×g for 1 hour to discard the supernatant, and the remaining pellet was resuspended in 20 mM HEPES buffer (pH 7.4). The prepared DGAT2 overexpressing membrane protein was dispensed in 100 μl and stored at −80° C. until use. Protein concentration was quantified by using the BCA Protein Assay Kit (Thermo Scientific).
In vitro DGAT2 analysis was performed using a Phospholipid Flash Plate (PerkinElmer) based on the principle of SPA (Scintilation Proximity Assay). First, DGAT2 inhibition compounds serially diluted 5 times from 3 nM to 10 μM (final concentration, 1% DMSO) were mixed in a buffer solution containing 2 μg DGAT2-membrane protein and 20 mM HEPES, 20 mM MgCl2, 1 mg/mL BSA, 50 μM 1,2 sn-oleoyl glycerol (Sigma), put in a 96-well flash plate (FlashPlate) and reacted at 37° C. for 20 minutes, and then 1 μM [14C] ole oil CoA (PerkinElmer, NEC651050UC) was added to be a final volume of 100 μL and further reacted at 37° C. for 15 minutes. After the enzymatic reaction was completed, 100 μL of isopropanol was added, the plate was sealed with a film, and the plate was shaken slowly in a plate shaker. The next day, the amplified scintillation signal (cpm) in Topcounter (Packard) was measured to measure the degree of production of [14C]-labeled triacyl glycerol (TG) as a reaction product. The measured value when the compound was not treated was used as a positive control, and the measured value of the compound treated group was calculated as a relative % to measure the inhibition effect of the compound on TG production.

Row | Structure (SMILES) | IC50 [nM]
1 | CCOc1ccccc1O[C@@H]1CCCN(c2cncc(Nc3ccc(/C=C/C(=O)O)cn3)n2)C1 [Example 37, (R,E)-3-(6-((6-(3-(2-ethoxyphenoxy)piperidin-1-yl)pyrazin-2-yl)amino)pyridin-3-yl)acrylic Acid] | > 10000
2 | CCOc1ccccc1O[C@@H]1CCCN(c2cncc(Nc3cccc(N4CCC[C@@H](C(=O)O)C4)n3)n2)C1 [Example 55, (R)-1-(6-((6-((R)-3-(2-ethoxyphenoxy)piperidin-1-yl)pyrazin-2-yl)amino)pyridin-2-yl)piperidine-3-carboxylic Acid] | 860
3 | CCOc1ccccc1O[C@@H]1CCCN(c2cncc(Nc3ccc(CC(=O)NCc4ccncc4)cc3)n2)C1 [Example 26, (R)-2-(4-((6-(3-(2-ethoxyphenoxy)piperidin-1-yl)pyrazin-2-yl)amino)phenyl)-N-(pyridin-4-ylmethyl)acetamide] | 6700
4 | CCOc1ccccc1O[C@@H]1CCCN(c2cncc(Nc3nc4ccc(S(C)(=O)=O)cc4s3)n2)C1 [Example 7, (R)—N-(6-(3-(2-ethoxyphenoxy)piperidin-1-yl)pyrazin-2-yl)-6-(methanesulfonyl)benzo[d]thiazol-2-amine] | 8800
5 | CCOc1ccccc1O[C@@H]1CCCN(c2cncc(Nc3ccn(-c4cccc(CC(C)(C)C(=O)O)c4)n3)n2)C1 [Example 69, (R)-3-(3-(3-((6-(3-(2-ethoxyphenoxy)piperidin-1-yl)pyrazin-2-yl)amino)-1H-pyrazol-1-yl)phenyl)-2,2-dimethylpropanoic Acid] | 1100
6 | CCOc1ccccc1O[C@@H]1CCCN(c2cncc(Nc3cc[nH]n3)n2)C1 [Example 19, (R)-6-(3-(2-ethoxyphenoxy)piperidin-1-yl)-N-(1H-pyrazol-3-yl)pyrazin-2-amine] | 1700
7 | CCOc1ccccc1O[C@@H]1CCCN(c2cncc(Nc3nc4cc(Cl)ccc4o3)n2)C1 [Example 11, (R)-5-chloro-N-(6-(3-(2-ethoxyphenoxy)piperidin-1-yl)pyrazin-2-yl)benzo[d]oxazol-2-amine] | 59
8 | CCOc1ccccc1O[C@@H]1CCCN(c2cncc(Nc3cccc(N4CCC(C(=O)O)C4)n3)n2)C1 (stereo partly drawn) [Example 52, 1-(6-((6-((R)-3-(2-ethoxyphenoxy)piperidin-1-yl)pyrazin-2-yl)amino)pyridin-2-yl)pyrrolidine-3-carboxylic Acid] | 730
9 | CCOc1ccccc1O[C@@H]1CCCN(c2cncc(Nc3ccn(CC(C)(C)C(=O)O)n3)n2)C1 [Example 21, (R)-3-(3-((6-(3-(2-ethoxyphenoxy)piperidin-1-yl)pyrazin-2-yl)amino)-1H-pyrazol-1-yl)-2,2-dimethylpropanoic Acid] | > 10000
10 | CCOc1ccccc1O[C@@H]1CCCN(c2cncc(Nc3ccc(CC(=O)O)cn3)n2)C1 [Example 36, (R)-2-(6-((6-(3-(2-ethoxyphenoxy)piperidin-1-yl)pyrazin-2-yl)amino)pyridin-3-yl)acetic Acid] | > 10000
11 | CCOc1ccccc1O[C@@H]1CCCN(c2cncc(Nc3nccc(N4CCC[C@@H](CCC(=O)O)C4)n3)n2)C1 [Example 130, 3-((S)-1-(2-((6-((R)-3-(2-ethoxyphenoxy)piperidin-1-yl)pyrazin-2-yl)amino)pyrimidin-4-yl)piperidin-3-yl)propanoic Acid] | 2100
12 | CCOc1ccccc1O[C@@H]1CCCN(c2cncc(Nc3cccc(N4CCC(C(=O)O)CC4)n3)n2)C1 [Example 56, (R)-1-(6-((6-(3-(2-ethoxyphenoxy)piperidin-1-yl)pyrazin-2-yl)amino)pyridin-2-yl)piperidine-4-carboxylic Acid] | 130

Next, values leading:

Row | IC50 [nM] | Structure (SMILES)
13 | 1200 | CCOc1cccnc1O[C@@H]1CCCN(c2cncc(Nc3cccc(Oc4ccc(C(=O)O)cc4)n3)n2)C1 [Example 90, (R)-4-((6-((6-(3-((3-ethoxypyridin-2-yl)oxy)piperidin-1-yl)pyrazin-2-yl)amino)pyridin-2-yl)oxy)benzoic Acid]
14 | 230 | CCOc1cccnc1O[C@@H]1CCCN(c2cncc(Nc3nccc(-c4ccc(C(C)(C)C(=O)O)cc4)n3)n2)C1 [Example 144, (R)-2-(4-(2-((6-(3-((3-ethoxypyridin-2-yl)oxy)piperidin-1-yl)pyrazin-2-yl)amino)pyrimidin-4-yl)phenyl)-2-methylpropanoic Acid]
15 | 1600 | CCOc1ccccc1O[C@@H]1CCCN(c2cncc(Nc3nccc(-c4cccc(C(C)(C)C(=O)O)c4)n3)n2)C1 [Example 141, (R)-2-(3-(2-((6-(3-(2-ethoxyphenoxy)piperidin-1-yl)pyrazin-2-yl)amino)pyrimidin-4-yl)phenyl)-2-methylpropanoic Acid]
16 | 470 | CCOc1cccnc1O[C@@H]1CCCN(c2cncc(Nc3nc(-c4cccc(CC(C)(C)C(=O)O)c4)cc(C(F)(F)F)n3)n2)C1 [Example 166, (R)-3-(3-(2-((6-(3-((3-ethoxypyridin-2-yl)oxy)piperidin-1-yl)pyrazin-2-yl)amino)-6-(trifluoromethyl)pyrimidin-4-yl)phenyl)-2,2-dimethylpropanoic Acid]
17 | 120 | CCOc1ccccc1O[C@@H]1CCCN(c2cncc(Nc3cccc(-c4ccc(OC(C)(C)C(=O)O)cc4)n3)n2)C1 [Example 82, (R)-2-(4-(6-((6-(3-(2-ethoxyphenoxy)piperidin-1-yl)pyrazin-2-yl)amino)pyridin-2-yl)phenoxy)-2-methylpropanoic Acid]
18 | 1100 | CCOc1ccccc1O[C@@H]1CCCN(c2cncc(Nc3nccc(-c4cccc(OC(C)(C)C(=O)O)c4)n3)n2)C1 [Example 158, (R)-2-(3-(2-((6-(3-(2-ethoxyphenoxy)piperidin-1-yl)pyrazin-2-yl)amino)pyrimidin-4-yl)phenoxy)-2-methylpropanoic Acid]
19 | 380 | CCOc1cc(F)ccc1O[C@@H]1CCCN(c2cncc(Nc3cccc(-c4ccc(OC(C)(C)C(=O)O)cc4)n3)n2)C1 [Example 177, (R)-2-(4-(6-((6-(3-(2-ethoxy-4-fluorophenoxy)piperidin-1-yl)pyrazin-2-yl)amino)pyridin-2-yl)phenoxy)-2-methylpropanoic Acid]
20 | 1300 | CCOc1cccnc1O[C@@H]1CCCN(c2cncc(Nc3cccc(Oc4cccc(C(=O)O)c4)n3)n2)C1 [Example 88, (R)-3-((6-((6-(3-((3-ethoxypyridin-2-yl)oxy)piperidin-1-yl)pyrazin-2-yl)amino)pyridin-2-yl)oxy)benzoic Acid]
21 | 150 | CCOc1cccnc1O[C@@H]1CCCN(c2cncc(Nc3nccc(-c4cccc(CC(C)(C)C(=O)O)c4)n3)n2)C1 [Example 147, (R)-3-(3-(2-((6-(3-((3-ethoxypyridin-2-yl)oxy)piperidin-1-yl)pyrazin-2-yl)amino)pyrimidin-4-yl)phenyl)-2,2-dimethylpropanoic Acid]
22 | 140 | CCOc1ccccc1O[C@@H]1CCCN(c2cncc(Nc3ccc(F)c(-c4cccc(CC(C)(C)C(=O)O)c4)n3)n2)C1 [Example 102, (R)-3-(3-(6-((6-(3-(2-ethoxyphenoxy)piperidin-1-yl)pyrazin-2-yl)amino)-3-fluoropyridin-2-yl)phenyl)-2,2-dimethylpropanoic Acid]
23 | 260 | CCOc1ccccc1O[C@@H]1CCCN(c2cncc(Nc3ccnc(-c4ccc(C(C)(C)C(=O)O)cc4)n3)n2)C1 [Example 169, (R)-2-(4-(4-((6-(3-(2-ethoxyphenoxy)piperidin-1-yl)pyrazin-2-yl)amino)pyrimidin-2-yl)phenyl)-2-methylpropanoic Acid]
